Experimental findings from US10328054B2, “Substituted pyrrolidines as mGluR5 antagonists” (Hua Medicine (Shanghai) Ltd., priority 2015, dated 2019) are described below.

This assay addresses recombinant rat mGluR5 (Rattus norvegicus (Rat), UniProt P31424). The assay can be described thus: Functional calcium flux assay (FLIPR). Format: cell-based. The note with it: HEK293 cells stably expressing recombinant rat mGluR5; inhibition of glutamate-evoked [Ca2+]i increase, 15 min incubation of test compound. On the procedure:
For functional assays, HEK293 cells stably expressing recombinant rat mGluR5 were seeded in 384-well plates and dye loaded using Fluo-8. Cells were then washed to remove the un-incorporated dye. Antagonist evaluation was performed following a 15 min incubation of the test compound followed by the addition of submaximal concentration of glutamate. Intracellular calcium ([Ca^2+]i) measurements were performed using a fluorometric imaging plate reader (FLIPR, Molecular Devices). The glutamate-evoked increase in [Ca^2+]i in the presence of the test compounds was compared to the response to glutamate alone (the positive control). Antagonist inhibition curves were fitted with a 4-parameter logistic equation giving IC50 values, and Hill coefficients using an iterative nonlinear curve fitting algorithm.
The tables below provide IC50 data in this assay. In the activity column, A=IC50>1,000 and <5,000 nM; B=IC50>500 and <1,000 nM and C=IC50<500 nM.
(In general: Calcium flux is commonly read through the fluorescence of an indicator in the cells.)

Chain of recombinant rat mGluR5 (P31424 21-1203): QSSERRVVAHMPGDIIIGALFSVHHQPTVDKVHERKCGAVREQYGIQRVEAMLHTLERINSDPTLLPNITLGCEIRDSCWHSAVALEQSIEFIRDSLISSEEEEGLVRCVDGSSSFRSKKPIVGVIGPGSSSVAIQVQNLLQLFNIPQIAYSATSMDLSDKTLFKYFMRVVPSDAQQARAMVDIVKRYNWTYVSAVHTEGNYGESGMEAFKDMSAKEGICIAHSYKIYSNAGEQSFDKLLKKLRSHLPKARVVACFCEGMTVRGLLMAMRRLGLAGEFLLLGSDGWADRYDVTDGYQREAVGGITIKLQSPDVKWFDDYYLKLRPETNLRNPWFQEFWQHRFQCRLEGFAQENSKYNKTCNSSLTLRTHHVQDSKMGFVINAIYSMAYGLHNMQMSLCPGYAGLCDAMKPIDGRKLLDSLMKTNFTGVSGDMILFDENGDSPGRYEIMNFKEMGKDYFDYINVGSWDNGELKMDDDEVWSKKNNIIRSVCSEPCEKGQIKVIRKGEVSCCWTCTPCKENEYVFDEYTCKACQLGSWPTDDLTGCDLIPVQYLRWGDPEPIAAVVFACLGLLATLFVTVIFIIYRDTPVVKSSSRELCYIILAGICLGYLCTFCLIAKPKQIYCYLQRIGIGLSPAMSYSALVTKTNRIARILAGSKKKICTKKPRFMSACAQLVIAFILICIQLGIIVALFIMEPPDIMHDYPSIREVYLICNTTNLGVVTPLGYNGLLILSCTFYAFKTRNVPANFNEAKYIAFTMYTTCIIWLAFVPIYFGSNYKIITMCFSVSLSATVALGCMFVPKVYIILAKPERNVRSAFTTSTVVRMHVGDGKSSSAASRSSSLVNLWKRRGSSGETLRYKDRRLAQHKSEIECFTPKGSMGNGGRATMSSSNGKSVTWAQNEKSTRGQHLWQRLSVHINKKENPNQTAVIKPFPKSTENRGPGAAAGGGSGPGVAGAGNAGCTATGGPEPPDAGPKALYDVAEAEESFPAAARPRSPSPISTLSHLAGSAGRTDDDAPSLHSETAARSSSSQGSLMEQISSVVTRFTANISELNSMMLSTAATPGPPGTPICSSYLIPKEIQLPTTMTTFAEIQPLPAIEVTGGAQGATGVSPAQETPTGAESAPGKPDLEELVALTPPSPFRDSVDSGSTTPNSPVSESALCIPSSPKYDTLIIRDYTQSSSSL

One may read the IC50 as the concentration at which inhibition is half-maximal. For `N#Cc1cccc(N2CC3CC3(C#Cc3ccccn3)C2)c1` (stereo not drawn) [Example Compound 40, 3-(1-(pyridin-2-ylethynyl)-3-azabicyclo[3.1.0]hexan-3-yl)benzonitrile], the IC50 is < 500 nM.
`N#Cc1cc(F)cc(N2CC3CC3(C#Cc3cccnn3)C2)c1` (stereo not drawn) [Example Compound 11, 3-fluoro-5-(1-(pyridazin-3-ylethynyl)-3-azabicyclo[3.1.0]hexan-3-yl)benzonitrile]: the IC50 was < 500 nM.
The figure for `Cc1nc(C#CC23CC2CN(C(=O)c2ccccc2)C3)cs1` (stereo not drawn) [Example Compound 66, (1-((2-methylthiazol-4-yl)ethynyl)-3-azabicyclo[3.1.0]hexan-3-yl)(phenyl)methanone] is < 500 nM; for `Clc1ccccc1N1CC2CC2(C#Cc2ccccn2)C1` (stereo not drawn) [Example Compound 17, 3-(2-chlorophenyl)-1-(pyridin-2-ylethynyl)-3-azabicyclo[3.1.0]hexane] it is < 500 nM.
With `Fc1cncc(N2CC3CC3(C#Cc3ccccn3)C2)c1` (stereo not drawn) [Example Compound 4], the IC50 was < 500 nM.
Take `C(#CC12CC1CN(c1ccccc1)C2)c1ccccn1` (stereo not drawn) [Example Compound 10, 3-phenyl-1-(pyridin-2-ylethynyl)-3-azabicyclo[3.1.0]hexane]: the IC50 is < 500 nM.
With `N#Cc1cc(F)cc(N2CC3CC3(C#Cc3ccnc(Cl)c3)C2)c1` (stereo not drawn) [Example Compound 12, 3-(1-((2-chloropyridin-4-yl)ethynyl)-3-azabicyclo[3.1.0]hexan-3-yl)-S-fluorobenzonitrile], the IC50 is < 500 nM.
`N#Cc1cc(F)cc(N2CC3CC3(C#Cc3cnccn3)C2)c1` (stereo not drawn) [Example Compound 7, 3-fluoro-5-(1-(pyrazin-2-ylethynyl)-3-azabicyclo[3.1.0]hexan-3-yl) benzonitrile]: the IC50 was < 500 nM.
With `N#Cc1cc(F)cc(N2CC3CC3(C#Cc3ccccn3)C2)c1` (stereo not drawn) [Example Compound 1, 3-fluoro-S-(1-(pyridin-2-ylethynyl)-3-azabicyclo[3.1.0]hexan-3-yl) benzonitrile] the figure was < 500 nM; with `Cc1nc(C#CC23CC2CN(C(=O)C(C)C)C3)cs1` (stereo not drawn) [Example Compound 68, 2-methyl-1-(1-((2-methylthiazol-4-yl)ethynyl)-3-azabicyclo[3.1.0]hexan-3-yl)propan-1-one], < 500 nM.
For `O=C(c1ccccn1)N1CC2CC2(C#Cc2ccccn2)C1` (stereo not drawn) [Example Compound 27, pyridin-2-yl(1-(pyridin-2-ylethynyl)-3-azabicyclo[3.1.0]hexan-3-yl)methanone], the IC50 is < 500 nM.
The figure for `O=C(c1ccccc1)N1CC2CC2(C#Cc2ccccn2)C1` (stereo not drawn) [Example Compound 28, phenyl(1-(pyridin-2-ylethynyl) 3-azabicyclo[3.1.0]hexan-3-yl)methanone] is < 500 nM; for `Cc1nc(C#CC23CC2CN(c2cc(F)cc(C#N)c2)C3)cs1` (stereo not drawn) [Example Compound 39, 3-fluoro-5-(1-((2-methylthiazol-4-yl)ethynyl)-3-azabicyclo[3.1.0]hexan-3-yl)benzonitrile] it is < 500 nM.
For the compound `O=C(c1ccc(Cl)nc1)N1CC2CC2(C#Cc2ccccn2)C1` (stereo not drawn) [Example Compound 56, (6-chloropyridin-3-yl)-(1-(pyridin-2-ylethynyl)-3-azabicyclo[3.1.0]hexan-3-yl)methanone], the IC50 is < 500 nM.
The figure for `Cc1nc(C#CC23CC2CN(C(=O)C(C)(C)C)C3)cs1` (stereo not drawn) [Example Compound 69, 2,2-dimethyl-1-(1-((2-methylthiazol-4-yl)ethynyl)-3-azabicyclo[3.1.0]hexan-3-yl)propan-1-one] is < 500 nM; for `CC(C)C(=O)N1CC2CC2(C#Cc2cccc(Cl)n2)C1` (stereo not drawn) [Example Compound 65, 1-(1-((6-chloropyridin-2-yl)ethynyl)-3-azabicyclo[3.1.0]hexan-3-yl)-2-methylpropan-1-one] it is < 500 nM.
The figure for `Fc1cncc(N2CC3CC3(C#Cc3ncccn3)C2)c1` (stereo not drawn) [Example Compound 63, 3-(5-fluoropyridin-3-yl)-1-(pyrimidin-2-ylethynyl)-3-azabicyclo[3.1.0]hexane] is < 500 nM; for `C(#CC12CC1CN(c1ccc3[nH]cnc3c1)C2)c1ccccn1` (stereo not drawn) [Example Compound 25, 5-(1-(pyridin-2-ylethynyl)-3-azabicyclo[3.1.0]hexan-3-yl)-1H-benzo[d]imidazole] it is 1000 to 5000 nM.
On to `N#Cc1cncc(N2CC3CC3(C#Cc3ccccn3)C2)c1` (stereo not drawn) [Example Compound 50, S-(1-(pyridin-2-ylethynyl)-3-azabicyclo[3.1.0]hexan-3-yl)nicotinonitrile], for which the IC50 was < 500 nM.
With `Cc1cccc(C#CC23CC2CN(C(=O)C(C)C)C3)n1` (stereo not drawn) [Example Compound 64, 2-methyl-1-(1-((6-methylpyridin-2-yl)ethynyl)-3-azabicyclo[3.1.0]hexan-3-yl)propan-1-one] the figure was < 500 nM; with `O=C(C1CCCC1)N1C[C@H]2C[C@@]2(C#Cc2ccccn2)C1` [Example Compound 51, cyclopentyl((1R,5S)-1-(pyridin-2-ylethynyl)-3-azabicyclo[3.1.0]hexan-3-yl)methanone], < 500 nM.
As to `O=C(CCc1ccccc1)N1CC2CC2(C#Cc2ccccn2)C1` (stereo not drawn) [Example Compound 32, 3-phenyl-1-(1-(pyridin-2-ylethynyl)-3-azabicyclo[3.1.0]hexan-3-yl)propan-1-one], the IC50 was < 500 nM.
The figure for `O=S(=O)(c1ccc(Cl)cc1)N1CC2CC2(C#Cc2ccccn2)C1` (stereo not drawn) [Example Compound 35, 3-((4-chlorophenyl)sulfonyl)-1-(pyridin-2-ylethynyl)-3-azabicyclo[3.1.0]hexane] is < 500 nM; for `Cc1nc(C#CC23CC2CN(c2cccc(C#N)c2)C3)cs1` (stereo not drawn) [Example Compound 47, 3-(1-((2-methylthiazol-4-yl)ethynyl)-3-azabicyclo[3.1.0]hexan-3-yl)benzonitrile] it is < 500 nM.
`N#Cc1ccnc(N2CC3CC3(C#Cc3ccccn3)C2)c1` (stereo not drawn) [Example Compound 23, 2-(1-(pyridin-2-ylethynyl)-3-azabicyclo[3.1.0]hexan-3-yl)isonicotinonitrile]: the IC50 is < 500 nM.
With `CCCCC(=O)N1CC2CC2(C#Cc2ccccn2)C1` (stereo not drawn) [Example Compound 31, 1-(1-(pyridin-2-ylethynyl)-3-azabicyclo[3.1.0]hexan-3-yl)pentan-1-one] the figure was < 500 nM; with `Cc1cccc(C#CC23CC2CN(C(=O)c2cccc(F)c2)C3)n1` (stereo not drawn) [Example Compound 44, (3-fluorophenyl)-(1-((6-methylpyridin-2-yl)ethynyl)-3-azabicyclo[3.1.0]hexan-3-yl)methanone], < 500 nM.
Regarding `CC(C)(C)C(=O)N1C[C@H]2C[C@@]2(C#Cc2ccccn2)C1` [Example Compound 52, 2,2-dimethyl-1-((1R,5S)-1-(pyridin-2-ylethynyl)-3-azabicyclo[3.1.0]hexan-3-yl)propan-1-one], the IC50 is < 500 nM.
Regarding `Clc1cccc(N2CC3CC3(C#Cc3ccccn3)C2)c1` (stereo not drawn) [Example Compound 18, 3-(3-chlorophenyl)-1-(pyridin-2-ylethynyl)-3-azabicyclo[3.1.0]hexane], the IC50 was < 500 nM.
With `O=C(c1ccccc1Cl)N1CC2CC2(C#Cc2ccccn2)C1` (stereo not drawn) [Example Compound 30, (2-chlorophenyl) (1-(pyridin-2-ylethynyl)-3-azabicyclo[3.1.0]hexan-3-yl)methanone] the figure was < 500 nM.
